From patent US11371025B2, “Non-covalent loading of plant picovirus particles” (CASE WESTERN RESERVE UNIVERSITY, priority 2013, dated 2022) come the findings set out here.

pIC50: −log10 of the molar value. Where a name gives a salt, the structure may show the parent alone.

For assay [1], the system named is HeLa cells. Description: XTT cell viability assay, HeLa. The class given is cell-based, human. Particulars: drug concentration, 24 h exposure, washed, further 24 h. A general note: Formazan colour is commonly taken as a measure of viable cells.
In another assay the test system is HT-29 cells. As to the kind of experiment: XTT cell viability assay, HT-29. The format is cell-based. Particulars: Homo sapiens, drug concentration, 24 h exposure, washed, further 24 h.
In a further assay the test system is PC-3 cells. Description: XTT cell viability assay, PC-3. The conditions noted are these: Homo sapiens, drug concentration, 24 h exposure, washed, further 24 h. The class given is cell-based.
Assay [2] has as its system HeLa cells. Particulars: 0.2 μM DAPI, 60 min incubation. The method, then: Cells were fixed and stained with WGA-A488 (Invitrogen) as described above. […] Confocal images were captured and analyzed as described above.
For delivery studies, the DAPI concentration was five magnitudes lower measuring only 0.2 μM DAPI.

Take `N.N.[Cl][Pt][Cl]` [CDDP, cis-dichlorodiammine platinum(II)]: the negative-log IC50 (pIC50) (as a rule, the IC50 on a negative log10 scale, so that one unit is a factor of ten) in the assay on HeLa cells [1] is 4.68 to 4.92.
Regarding `Nc1ccc2cc3ccc(N)cc3nc2c1` [proflavine, 3,6-diaminoacridine hydrochloride], the pIC50 was 5.54 to 5.74 with HeLa cells [1] (Homo sapiens), 5.21 with HT-29 cells and 5.21 in the assay with PC-3 cells.
On to 4′,6-diamidino-2-phenylindole [DAPI], for which the “fluorescent signals from the nuclei” value in the assay with HeLa cells [2] was “do not show any apparent fluorescent signals”.
